From PubChem BioAssay (NCI)
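Tested at 5 concentrations; 48 h exposure; 96-well plates; endpoints linearly interpolated, else capped at highest concentration. TGI: total growth inhibition.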

What was measured:
Assay in all cases: growth of human tumour cells (NCI), 48 h
SF-268 CNS = system: SF-268 CNS
HS 578T breast = system: HS 578T breast
SK-OV-3 ovarian = system: SK-OV-3 ovarian
NCI-H460 lung = system: NCI-H460 lung
HOP-92 NSCLC = system: HOP-92 NSCLC
MDA-N = system: MDA-N
SF-295 CNS = system: SF-295 CNS
COLO 205 colon = system: COLO 205 colon
SNB-75 CNS = system: SNB-75 CNS
EKVX NSCLC = system: EKVX NSCLC
UACC-257 melanoma = system: UACC-257 melanoma
M14 melanoma = system: M14 melanoma
HT29 colon = system: HT29 colon
PC-3 prostate = system: PC-3 prostate
KM12 colon = system: KM12 colon
BT-549 breast = system: BT-549 breast
K-562 leukemia = system: K-562 leukemia
786-0 renal = system: 786-0 renal
HL-60(TB) leukemia = system: HL-60(TB) leukemia
A498 renal = system: A498 renal
NCI-H226 lung = system: NCI-H226 lung
UACC-62 melanoma = system: UACC-62 melanoma
RPMI-8226 leukemia = system: RPMI-8226 leukemia
LOX IMVI melanoma = system: LOX IMVI melanoma
RXF 393 renal = system: RXF 393 renal
MCF7 breast = system: MCF7 breast
IGROV1 ovarian = system: IGROV1 ovarian
MALME-3M melanoma = system: MALME-3M melanoma
T-47D breast = system: T-47D breast
U251 CNS = system: U251 CNS
HCT-15 colon = system: HCT-15 colon
TK-10 renal = system: TK-10 renal
UO-31 renal = system: UO-31 renal
SNB-19 CNS = system: SNB-19 CNS
OVCAR-8 ovarian = system: OVCAR-8 ovarian
SN12C renal = system: SN12C renal
DU-145 prostate = system: DU-145 prostate
SF-539 CNS = system: SF-539 CNS
NCI-H522 lung = system: NCI-H522 lung
SW-620 colon = system: SW-620 colon
MDA-MB-231 breast = system: MDA-MB-231 breast
NCI-H23 lung = system: NCI-H23 lung
ACHN renal = system: ACHN renal
HOP-62 NSCLC = system: HOP-62 NSCLC
SK-MEL-2 melanoma = system: SK-MEL-2 melanoma
OVCAR-4 ovarian = system: OVCAR-4 ovarian
HCC-2998 colon = system: HCC-2998 colon
OVCAR-5 ovarian = system: OVCAR-5 ovarian
OVCAR-3 ovarian = system: OVCAR-3 ovarian
MDA-MB-435 = system: MDA-MB-435
SR leukemia = system: SR leukemia
SK-MEL-28 melanoma = system: SK-MEL-28 melanoma
HCT-116 colon = system: HCT-116 colon
MOLT-4 leukemia = system: MOLT-4 leukemia
NCI/ADR-RES ovarian = system: NCI/ADR-RES ovarian
CCRF-CEM leukemia = system: CCRF-CEM leukemia
SK-MEL-5 melanoma = system: SK-MEL-5 melanoma
CAKI-1 renal = system: CAKI-1 renal
A549 NSCLC = system: A549 NSCLC

Measured: TGI

COc1ccc(OC)c2c1-c1nnnn1CCC2(C)C
not listed: SK-MEL-5 melanoma | CAKI-1 renal | A549 NSCLC
> 100 µM: all other assays above

Cc1csc(CP(=O)(OC(C)C)OC(C)C)n1
not listed: KM12 colon | UACC-62 melanoma | CCRF-CEM leukemia
> 100 µM: all other assays above
